# Measured values reported in patent publication US9695155B2, “Herbicidal substituted pyrimidinyloxy benzene compounds” (E. I. DU PONT DE NEMOURS AND COMPANY, priority 2013, dated 2017).
# Key:
# [1] = system: corn; assay: Test A postemergence; format: in vivo, Zea mays
# Outline: (§1)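 Visual injury scored 0–100 (100 = complete control) against untreated controls about 10 days after treatment in a greenhouse. Test chemicals, formulated with surfactant in non-phytotoxic solvent, were sprayed on soil preemergence or on 2-10 cm, one- to two-leaf plants postemergence.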
# [2] = system: galium; assay: Test A postemergence; format: in vivo, Galium aparine
# Description: (§2) Seeds of plant species selected from barnyardgrass (Echinochloa crus-galli), kochia (Kochia scoparia), ragweed (common ragweed, Ambrosia elatior), Italian ryegrass (Lolium multiflorum), large (Lg) crabgrass (Digitaria sanguinalis), giant foxtail (Setaria faberii), morningglory (Ipomoea spp.), pigweed (Amaranthus retroflexus), velvetleaf (Abutilon theophrasti), wheat (Triticum aestivum), and corn (Zea mays) were planted into a blend of loam soil and sand and treated preemergence with a directed soil spray using test chemicals formulated in a non-phytotoxic solvent mixture which included a surfactant.
# (§3) At the same time, plants selected from these crop and weed species and also blackgrass (Alopecurus myosuroides), and galium (catchweed bedstraw, Galium aparine) were planted in pots containing the same blend of loam soil and sand and treated with postemergence applications of test chemicals formulated in the same manner. Plants ranged in height from 2 to 10 cm and were in the one- to two-leaf stage for the postemergence treatment. Treated plants and untreated controls were maintained in a greenhouse for approximately 10 days, after which time all treated plants were compared to untreated controls and visually evaluated for injury. Plant response ratings, summarized in Table A, are based on a 0 to 100 scale where 0 is no effect and 100 is complete control. A dash (-) response means no test result.
# [3] = system: barnyardgrass; assay: Test A postemergence; format: in vivo, Echinochloa crus-galli
# Outline: as §1
# [4] = system: pigweed; assay: Test A preemergence; format: in vivo, Amaranthus retroflexus; settings: for Plant response rating, Pigweed: 125 g ai/ha
# Outline: as §1
# [5] = system: Italian ryegrass; assay: Test A preemergence; format: in vivo, Lolium multiflorum; settings: 0 to 100 scale, 0 no effect, 100 complete control, approx. 10 days
# Description: as §2, §3
# [6] = system: pigweed; assay: Test A postemergence; format: in vivo, Amaranthus retroflexus
# Outline: as §1
# [7] = system: ragweed; assay: Test A postemergence; format: in vivo, Ambrosia elatior
# Description: as §2, §3
# [8] = system: giant foxtail; assay: Test A postemergence; format: in vivo, Setaria faberii
# Outline: as §1
# [9] = system: kochia; assay: Test A postemergence; format: in vivo, Kochia scoparia
# Description: as §2, §3
# [10] = system: blackgrass; assay: Test A postemergence; format: in vivo, Alopecurus myosuroides; settings: 0 to 100 scale, 0 no effect, 100 complete control
# Description: as §2, §3
# [11] = system: kochia; assay: Test A preemergence; format: in vivo, Kochia scoparia; settings: 0 to 100 scale, 0 no effect, 100 complete control, approx. 10 days
# Description: as §2, §3
# [12] = system: Italian ryegrass; assay: Test A postemergence; format: in vivo, Lolium multiflorum
# Description: as §2, §3
# [13] = system: ragweed; assay: Test A preemergence; format: in vivo, Ambrosia elatior; settings: 0 to 100 scale, 0 no effect, 100 complete control, approx. 10 days
# Description: as §2, §3
# [14] = system: barnyardgrass; assay: Test A preemergence; format: in vivo, Echinochloa crus-galli; settings: for Plant response rating, Barnyardgrass: 125 g ai/ha
# Outline: as §1
# [15] = system: giant foxtail; assay: Test A preemergence; format: in vivo, Setaria faberii; settings: for Plant response rating, Foxtail, Giant: 125 g ai/ha
# Outline: as §1
# [16] = system: wheat; assay: Test A postemergence; format: in vivo, Triticum aestivum
# Outline: as §1
# [17] = system: large (Lg) crabgrass; assay: Test A postemergence; format: in vivo, Digitaria sanguinalis
# Outline: as §1
# [18] = system: wheat; assay: Test A preemergence; format: in vivo, Triticum aestivum; settings: for Plant response rating, Wheat: 125 g ai/ha; for Wheat plant response rating: 500 g ai/ha
# Outline: as §1
# [19] = system: morningglory; assay: Test A preemergence; format: in vivo, Ipomoea spp.; settings: for Plant response rating, Morningglory: 125 g ai/ha; for Morningglory plant response rating: 500 g ai/ha
# Outline: as §1
# [20] = system: rice; assay: Test B flooded paddy test; format: in vivo, Oryza sativa; settings: Flood, 250 g ai/ha; 0 to 100 scale where 0 is no effect and 100 is complete control
# Outline: (§4)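 Greenhouse flooded-pot test: compounds dosed into 3 cm standing water over 2-leaf plants, flood held constant. Rated visually after 13–15 days on 0–100 (complete control = 100); a dash marks no test result.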
# [21] = system: velvetleaf; assay: Test A preemergence; format: in vivo, Abutilon theophrasti; settings: for Plant response rating, Velvetleaf: 125 g ai/ha; for Velvetleaf plant response rating: 500 g ai/ha
# Outline: as §1
# [22] = system: morningglory; assay: Test A postemergence; format: in vivo, Ipomoea spp.
# Outline: as §1
# [23] = system: barnyardgrass; assay: Test B flooded paddy test; format: in vivo, Echinochloa crus-galli; settings: Flood, 250 g ai/ha; 0 to 100 scale where 0 is no effect and 100 is complete control
# Outline: as §4
# [24] = system: large (Lg) crabgrass; assay: Test A preemergence; format: in vivo, Digitaria sanguinalis; settings: for Plant response rating, Crabgrass, Large: 125 g ai/ha; for Crabgrass, Large plant response rating: 500 g ai/ha
# Outline: as §1
# [25] = system: corn; assay: Test A preemergence; format: in vivo, Zea mays; settings: for Plant response rating, Corn: 125 g ai/ha; for Corn plant response rating: 500 g ai/ha
# Outline: as §1
# [26] = system: velvetleaf; assay: Test A postemergence; format: in vivo, Abutilon theophrasti
# Outline: as §1
# [27] = system: sedge, umbrella; assay: Test B flooded paddy test; format: in vivo, Cyperus difformis; settings: Flood, 250 g ai/ha; 0 to 100 scale where 0 is no effect and 100 is complete control
# Outline: as §4
# [28] = system: Heteranthera limosa; assay: Test B flooded paddy test; format: in vivo; settings: Flood, 250 g ai/ha; 0 to 100 scale where 0 is no effect and 100 is complete control
# Outline: as §4
# [29] = 1000 g ai/ha, 0 to 100 scale, 0 no effect, 100 complete control
# [30] = 1000 g ai/ha, 0 to 100 scale, 0 no effect, 100 complete control, approx. 10 days
# [31] = 500 g ai/ha, 0 to 100 scale, 0 no effect, 100 complete control
# [32] = 500 g ai/ha, 0 to 100 scale where 0 is no effect and 100 is complete control
# [33] = 500 g ai/ha, 0 to 100 scale, 0 no effect, 100 complete control, approx. 10 days
# [34] = 125 g ai/ha, 0 to 100 scale where 0 is no effect and 100 is complete control
# [35] = 0 to 100 scale where 0 is no effect and 100 is complete control
# [36] = 0 to 100 scale, 0 no effect, 100 complete control, approx. 10 days
smiles,measurement,setting,value
CC(C)(C)NS(=O)(=O)c1cnn(-c2ccccc2Oc2ncc(Cl)cn2)c1 [Compound 283],"Plant response rating, Corn",[1]; [29],0
same,"Plant response rating, Galium",[2]; [29],30
same,"Plant response rating, Barnyardgrass",[3]; [29],0
same,Pigweed plant response rating,[4]; [30],0
same,"Ryegrass, Italian plant response rating",[5]; 1000 g ai/ha,0
same,"Plant response rating, Pigweed",[6]; [29],20
same,"Plant response rating, Ragweed",[7]; [29],20
same,"Plant response rating, Foxtail, Giant",[8]; [29],0
same,"Plant response rating, Kochia",[9]; [29],10
same,"Plant response rating, Blackgrass",[10]; 1000 g ai/ha,10
same,Kochia plant response rating,[11]; 1000 g ai/ha,0
same,"Plant response rating, Ryegrass, Italian",[12]; [29],0
same,Ragweed plant response rating,[13]; 1000 g ai/ha,0
same,Barnyardgrass plant response rating,[14]; [30],0
same,"Foxtail, Giant plant response rating",[15]; [30],0
same,"Plant response rating, Wheat",[16]; [29],0
Oc1cccc(Oc2ncc(Cl)cn2)c1-n1cc(Br)cn1 [Compound 68],"Plant response rating, Corn",[1]; [31],0
same,"Plant response rating, Galium",[2]; [32],0
same,"Plant response rating, Barnyardgrass",[3]; [31],0
same,Pigweed plant response rating,[4]; [33],30
same,"Ryegrass, Italian plant response rating",[5]; 500 g ai/ha,0
same,"Plant response rating, Pigweed",[6]; [32],0
same,"Plant response rating, Ragweed",[7]; [32],0
same,"Plant response rating, Foxtail, Giant",[8]; [32],0
same,"Plant response rating, Kochia",[9]; [32],0
same,"Plant response rating, Blackgrass",[10]; 500 g ai/ha,0
same,Kochia plant response rating,[11]; 500 g ai/ha,0
same,"Plant response rating, Ryegrass, Italian",[12]; [32],0
same,Ragweed plant response rating,[13]; 500 g ai/ha,0
same,Barnyardgrass plant response rating,[14]; [33],0
same,"Foxtail, Giant plant response rating",[15]; [33],0
same,"Plant response rating, Wheat",[16]; [32],0
O=Cc1cccc(Oc2ncc(Br)cn2)c1-n1cc(C(F)(F)F)cn1 [Compound 161],Corn plant response rating,[1]; [34],0
same,"Plant response rating, Corn",[1]; [32],0
same,"Crabgrass, Large plant response rating",[17]; [34],0
same,"Plant response rating, Crabgrass, Large",[17]; [32],0
same,Barnyardgrass plant response rating,[3]; [34],0
same,"Plant response rating, Barnyardgrass",[3]; [32],0
same,"Plant response rating, Pigweed",[4]; [35],90
same,Pigweed plant response rating,[4]; [32],100
same,"Plant response rating, Wheat",[18]; [35],0
same,Wheat plant response rating,[18]; [35],0
same,Pigweed plant response rating,[6]; [34],50
same,"Plant response rating, Pigweed",[6]; [32],80
same,"Plant response rating, Morningglory",[19]; [35],0
same,Morningglory plant response rating,[19]; [35],0
same,"Plant response rating, Rice",[20],0
same,"Plant response rating, Velvetleaf",[21]; [35],10
same,Velvetleaf plant response rating,[21]; [35],20
same,Morningglory plant response rating,[22]; [34],0
same,"Plant response rating, Morningglory",[22]; [32],0
same,"Foxtail, Giant plant response rating",[8]; [34],0
same,"Plant response rating, Foxtail, Giant",[8]; [32],0
same,"Plant response rating, Barnyardgrass",[23],0
same,"Plant response rating, Crabgrass, Large",[24]; [35],0
same,"Crabgrass, Large plant response rating",[24]; [35],0
same,"Plant response rating, Corn",[25]; [35],0
same,Corn plant response rating,[25]; [35],0
same,"Plant response rating, Barnyardgrass",[14]; [35],0
same,Barnyardgrass plant response rating,[14]; [32],10
same,Velvetleaf plant response rating,[26]; [34],10
same,"Plant response rating, Velvetleaf",[26]; [32],20
same,"Plant response rating, Foxtail, Giant",[15]; [35],0
same,"Foxtail, Giant plant response rating",[15]; [32],0
same,Wheat plant response rating,[16]; [34],0
same,"Plant response rating, Wheat",[16]; [32],0
same,"Plant response rating, Sedge, Umbrella",[27],0
same,"Plant response rating, Ducksalad",[28],0
N#Cc1cccc(Oc2ncc(I)cn2)c1-n1cc(Br)cn1 [Compound 60],"Plant response rating, Corn",[1]; [34],0
same,"Plant response rating, Corn",[1]; [31],30
same,"Plant response rating, Crabgrass, Large",[17]; [34],10
same,"Plant response rating, Crabgrass, Large",[17]; [31],70
same,"Plant response rating, Barnyardgrass",[3]; [34],20
same,"Plant response rating, Barnyardgrass",[3]; [31],50
same,"Plant response rating, Pigweed",[4]; [35],30
same,Pigweed plant response rating,[4]; [33],100
same,"Plant response rating, Wheat",[18]; [35],0
same,Wheat plant response rating,[18]; [36],0
same,"Plant response rating, Pigweed",[6]; [34],50
same,"Plant response rating, Pigweed",[6]; [31],100
same,"Plant response rating, Morningglory",[19]; [35],0
same,Morningglory plant response rating,[19]; [36],0
same,"Plant response rating, Rice",[20],0
same,"Plant response rating, Velvetleaf",[21]; [35],0
same,Velvetleaf plant response rating,[21]; [36],40
same,"Plant response rating, Morningglory",[22]; [34],10
same,"Plant response rating, Morningglory",[22]; [31],50
same,"Plant response rating, Foxtail, Giant",[8]; [34],20
same,"Plant response rating, Foxtail, Giant",[8]; [31],80
same,"Plant response rating, Barnyardgrass",[23],0
same,"Plant response rating, Crabgrass, Large",[24]; [35],40
same,"Crabgrass, Large plant response rating",[24]; [36],100
same,"Plant response rating, Corn",[25]; [35],0
same,Corn plant response rating,[25]; [36],0
same,"Plant response rating, Barnyardgrass",[14]; [35],0
same,Barnyardgrass plant response rating,[14]; [33],70
same,"Plant response rating, Velvetleaf",[26]; [34],50
same,"Plant response rating, Velvetleaf",[26]; [31],100
same,"Plant response rating, Foxtail, Giant",[15]; [35],20
same,"Foxtail, Giant plant response rating",[15]; [33],90
same,"Plant response rating, Wheat",[16]; [34],0
same,"Plant response rating, Wheat",[16]; [31],10
same,"Plant response rating, Sedge, Umbrella",[27],0
same,"Plant response rating, Ducksalad",[28],0
